Test results published in paper PMC4802219, “Improved dialytic removal of protein-bound uraemic toxins with use of albumin binding competitors: an in vitro human whole blood study” (Scientific Reports, 2016).

Columns and labels:
[1] = target: T1, albumin (Homo sapiens, UniProt P02768); test: Static RED assay of PBUT displacement by binding competitors in uraemic plasma; conditions: for displacement of IS and PCS: RED assay (Fig. 1); for increase of free fraction of IS / increase of free fraction of PCS: displacer 1 mmol/l, RED 4 h 37 °C, compared to PBS
T1 construct: from tissue; host or cells: human uraemic plasma
Method: We evaluated the albumin binding of uraemic toxins and their interaction with displacers in human uraemic plasma utilizing the RED device. Candidate displacers were mixed with uraemic plasma before incubation. The test mixture (300 μl) was added into the sample chamber, while the buffer chamber was filled with 500 μl PBS. After 4 hours of incubation (37 °C, 250 rpm), samples were collected from both chambers for HPLC analysis. The concentration of all displacers and negative control (antipyrine) in the incubations was 1 mmol/l. For furosemide, incubations at final concentration of 0.18 mmol/l were also included since this is the clinically relevant concentration for intravenous administration.
(§1) Blood samples were centrifuged at 13200 rpm for 3 mins. The plasma layer was collected and stored at −80 °C. Plasma samples (50 μl) were precipitated with 100 μl of ice-cold acetonitrile to precipitate the proteins. The samples were then vortexed thoroughly and centrifuged at 3000 rpm for 10 minutes. The supernatant, containing the uraemic toxins and displacers, was collected and further diluted 1:1 with deionized water before HPLC injection. The dialysate samples (100 μl) were diluted with 100 μl water before HPLC injection.
(§2) Measurements were calibrated with standard curves for all analytes, and were linear over the concentration range of the experiments. Measurements were performed on an Agilent 1100 system (Agilent Technologies, Dover, DE, USA) equipped with a C18 column (Kinetex 5 μm C18 100 Å, LC Column 150 × 4.6 mm, Phenomenex, Torrance, CA, USA). Mobile phase A: ammonium formate, 20 mmol/l, pH 4. Mobile phase B: acetonitrile. The gradient profile for mobile phase B was: 0–2 min, 15%; 11–14 min, 100%; 14.2–16 min, 15%; and the flow rate gradient was 0–11.2 min, 0.4 ml/min; 11.2–16 min 0.5 ml/min. […] HIPA and furosemide were detected at 230 nm with the UV-Vis detector. The injection volume was 5 μl.
For PBUT displacement in RED assays, Dunnett’s post-analysis comparisons to PBS were performed by one way ANOVA using GraphPad Prism (GraphPad Software, La Jolla, CA).

[2] = target: T1, albumin; test: Single-pass haemodialysis model with uraemic human whole blood and pre-dialyzer displacer infusion
Method: All experiments were carried out in triplicate.
as §1
as §2, with “acetonitrile.” for “acetonitrile. The gradient profile for mobile phase B was: 0–2 min, 15%; 11–14 min, 100%; 14.2–16 min, 15%; and the flow rate gradient was 0–11.2 min, 0.4 ml/min; 11.2–16 min 0.5 ml/min.”

[3] = target: T1, albumin; test: Static RED assay of IS displacement by ibuprofen with or without furosemide in normal human plasma; type: binding; conditions: normal human plasma spiked with IS 150 μmol/l, ibuprofen 0 to 931 μmol/l, furosemide 0.18 mmol/l (Fig. 3)
[4] = parameters: method as in PMID 973966, PMID 3514052; conditions: cited from earlier work
[5] = intervention phase vs baseline phase, P < 0.0001

T1 sequence (P02768 25-609): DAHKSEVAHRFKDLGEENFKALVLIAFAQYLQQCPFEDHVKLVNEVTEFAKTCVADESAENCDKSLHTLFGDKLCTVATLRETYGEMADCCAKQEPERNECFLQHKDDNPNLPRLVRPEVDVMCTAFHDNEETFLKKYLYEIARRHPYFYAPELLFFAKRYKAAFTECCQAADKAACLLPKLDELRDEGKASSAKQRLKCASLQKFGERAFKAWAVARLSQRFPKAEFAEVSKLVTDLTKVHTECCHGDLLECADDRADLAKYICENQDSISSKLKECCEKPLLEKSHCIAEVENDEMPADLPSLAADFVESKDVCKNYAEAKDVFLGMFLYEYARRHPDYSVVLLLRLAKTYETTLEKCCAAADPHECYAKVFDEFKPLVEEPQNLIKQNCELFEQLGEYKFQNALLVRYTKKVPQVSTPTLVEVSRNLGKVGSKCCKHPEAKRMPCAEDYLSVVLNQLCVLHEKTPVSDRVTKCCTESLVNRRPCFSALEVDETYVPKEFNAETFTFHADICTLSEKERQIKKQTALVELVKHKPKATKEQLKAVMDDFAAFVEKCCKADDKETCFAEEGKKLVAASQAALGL

| SMILES | displacement of IS and PCS ([1]; uraemic plasma) | increase of free fraction of IS ([1]; uraemic plasma) [fold] | increase of free fraction of PCS ([1]; uraemic plasma) [fold] | HIPA removal ([2]; human whole blood, HIPA 400 μmol/l (1 mmol/l with tryptophan) (Fig. 6)) | fractional removal of IAA during displacer infusion ([2]; human whole blood, IAA 15 μmol/l, Qb 12.5 ml/min, Qd 25 ml/min, mean ± SEM, N = 3) [%] | fractional removal of IS during displacer infusion ([2]; human whole blood, IS 150 μmol/l, Qb 12.5 ml/min, Qd 25 ml/min, mean ± SEM, N = 3) [%] | increase of IAA removal [2, 5] [fold] | increase of IS removal [2, 5] [fold] | increase in the free fraction of IS ([1]; furosemide alone at 0.18 mmol/l (Fig. 1)) | displacement of HIPA ([1]; uraemic plasma, RED assay (Fig. 2)) | effect on IS displacement by ibuprofen when given simultaneously [3] | change in uraemic toxin protein binding ([1]; uraemic plasma, negative control 1 mmol/l (Figs 1 and 2)) | protein binding capability [4] |
| --- | --- | --- | --- | --- | --- | --- | --- | --- | --- | --- | --- | --- | --- |
| N[C@@H](Cc1c[nH]c2ccccc12)C(=O)O [tryptophan, L-Tryptophan] | more efficiently than HIPA | ~2 | ~2 | virtually unaffected | 27.1 ± 0.3 | 10.5 ± 0.1 | 1.3 | 1.4 |  |  |  |  |  |
| NS(=O)(=O)c1cc(C(=O)O)c(NCc2ccco2)cc1Cl [furosemide] | limited displacement effect | ~1.3 | ~1.3 |  |  |  |  |  | did not induce a significant increase | significant displacement | boost the IS displacement effect of ibuprofen |  |  |
| Cc1cc(=O)n(-c2ccccc2)n1C [antipyrine] |  |  |  |  |  |  |  |  |  |  |  | did not lead to a significant change | lacks protein binding capability |
